Measurements: article PMC7910904, “Improving the Antioxidant Properties of Calophyllum inophyllum Seed Oil from French Polynesia: Development and Biological Applications of Resinous Ethanol-Soluble Extracts” (Antioxidants, 2021)
Converted amounts (≈) assume the structure as drawn.

Experiments:
3T3 fibroblasts = assay: MTT cytotoxicity on 3T3 fibroblasts; type: cell-based, murine; settings: Mus musculus, Fibroblast, 50% viability after 48 h
M. tuberculosis H37 RV = assay: Anti-mycobacterial Microplate-based Alamar Blue assay (MABA); type: cell-based; settings: Mycobacterium tuberculosis, H37RV
DPPH assay = settings: for IC50: metabolites and standards, in dichloromethane
Protocol: Experiments were performed according to previous procedures. Aliquots of dichloromethane solutions of oil or fractions (50–500 mg/mL) or test compounds (final concentration 0.01–2 mM) were added to 200 µL of a freshly prepared DPPH solution (75 mg/L), and the final volume was adjusted to 300 µL with dichloromethane to obtain a final DPPH concentration of 0.13 mM. The absorbance was read at 517 nm on a microplate reader 3 min after sample addition. Experiments were performed in triplicate and averaged. The DPPH inhibition was calculated as follows:Inhibition (%) = [100 × (A0 − A)/A0](1)

[1] = tested on: A549 human lung carcinoma cells; assay: MTT cytotoxicity on A549 cells; type: cell-based; settings: 50% viability after 48 h
[2] = tested on: Staphylococcus aureus (ATCC 6538); assay: Antimicrobial disk-diffusion agar method; type: cell-based; settings: for Antimicrobial activity against S. aureus, in words: 20 µg per disc; for zone of inhibition at 20 µg/disc: Staphylococcus aureus, ATCC6538, 20 µg/disk, 24 h, read-out: S. aureus Diameter of the zone of inhibition
[3] = Total peroxyl radical-trapping potential (TRAP) assay; settings: for TRAP TE: metabolites and standards: activity of a 1 µM-solution relative to 1 µM Trolox
Protocol: The experimental protocol of the TRAP assay was previously reported. Briefly, AAPH (150 mM) was dissolved in 10 mL of Tris HCl buffer solution (100 mM, pH 7.4), and the solution was kept at 37 °C for 30 min to initiate thermal radical formation. A luminol stock solution (1 mM) was prepared in 50 mL Tris HCl buffer and kept in darkness at 4 °C. A 78 µM, working luminol solution was prepared before each assay by dilution in Tris HCl buffer. Samples for assays were prepared as follows: 2 mL of AAPH (final concentration, 100 mM) and 500 μL of luminol solution (final concentration, 13 µM) were introduced in a 3 mL tube; then, 500 μL of pure acetone (blank) or solution of the tested oil or extract in acetone (0.005–0.2 mg/mL) or DMSO (test compounds: 5–300 µM) were added and the mixture vortexed for 5 s before luminescence analysis. A calibration curve was obtained in the same conditions using the antioxidant Trolox (1–40 μM) as a standard.
Quantification of radical scavenging capacity was performed by integrating the area under the curve (AUC) for the sample and blank solutions, and the results are expressed as Trolox Equivalents (TE) using Equation (2):TE = ([Trolox] × ΔAUC Sample)/([Sample] × ΔAUC Trolox)(2) where ΔAUC Sample (Trolox) = AUC Blank − AUC Sample (Trolox).

[4] = Superoxide radical quenching (allopurinol-XO generator, lucigenin luminescence); settings: glycine buffer/acetone
Protocol: All reactants were dissolved in glycine buffer, and the reaction was carried out at 25 °C [30]. […] The test tube was inserted in the luminometer, and reaction was initiated by adding a XO suspension (2 µL, 11 mU/mL). Luminescence was monitored for a total period of 7 min and O2^•− quenching was calculated by subtracting areas under the curve against blank. Each measurement was performed in triplicate.

[5] = target: T1, xanthine oxidase (XO; from buttermilk) (Bos taurus, UniProt P80457); assay: biochemical; settings: 30 min, 37 °C; read-out: XO Inhibition IC50 (converted)
T1 construct: purchased Sigma-Aldrich; host or cells: buttermilk (natural source)
T1 sequence (P80457 whole entry): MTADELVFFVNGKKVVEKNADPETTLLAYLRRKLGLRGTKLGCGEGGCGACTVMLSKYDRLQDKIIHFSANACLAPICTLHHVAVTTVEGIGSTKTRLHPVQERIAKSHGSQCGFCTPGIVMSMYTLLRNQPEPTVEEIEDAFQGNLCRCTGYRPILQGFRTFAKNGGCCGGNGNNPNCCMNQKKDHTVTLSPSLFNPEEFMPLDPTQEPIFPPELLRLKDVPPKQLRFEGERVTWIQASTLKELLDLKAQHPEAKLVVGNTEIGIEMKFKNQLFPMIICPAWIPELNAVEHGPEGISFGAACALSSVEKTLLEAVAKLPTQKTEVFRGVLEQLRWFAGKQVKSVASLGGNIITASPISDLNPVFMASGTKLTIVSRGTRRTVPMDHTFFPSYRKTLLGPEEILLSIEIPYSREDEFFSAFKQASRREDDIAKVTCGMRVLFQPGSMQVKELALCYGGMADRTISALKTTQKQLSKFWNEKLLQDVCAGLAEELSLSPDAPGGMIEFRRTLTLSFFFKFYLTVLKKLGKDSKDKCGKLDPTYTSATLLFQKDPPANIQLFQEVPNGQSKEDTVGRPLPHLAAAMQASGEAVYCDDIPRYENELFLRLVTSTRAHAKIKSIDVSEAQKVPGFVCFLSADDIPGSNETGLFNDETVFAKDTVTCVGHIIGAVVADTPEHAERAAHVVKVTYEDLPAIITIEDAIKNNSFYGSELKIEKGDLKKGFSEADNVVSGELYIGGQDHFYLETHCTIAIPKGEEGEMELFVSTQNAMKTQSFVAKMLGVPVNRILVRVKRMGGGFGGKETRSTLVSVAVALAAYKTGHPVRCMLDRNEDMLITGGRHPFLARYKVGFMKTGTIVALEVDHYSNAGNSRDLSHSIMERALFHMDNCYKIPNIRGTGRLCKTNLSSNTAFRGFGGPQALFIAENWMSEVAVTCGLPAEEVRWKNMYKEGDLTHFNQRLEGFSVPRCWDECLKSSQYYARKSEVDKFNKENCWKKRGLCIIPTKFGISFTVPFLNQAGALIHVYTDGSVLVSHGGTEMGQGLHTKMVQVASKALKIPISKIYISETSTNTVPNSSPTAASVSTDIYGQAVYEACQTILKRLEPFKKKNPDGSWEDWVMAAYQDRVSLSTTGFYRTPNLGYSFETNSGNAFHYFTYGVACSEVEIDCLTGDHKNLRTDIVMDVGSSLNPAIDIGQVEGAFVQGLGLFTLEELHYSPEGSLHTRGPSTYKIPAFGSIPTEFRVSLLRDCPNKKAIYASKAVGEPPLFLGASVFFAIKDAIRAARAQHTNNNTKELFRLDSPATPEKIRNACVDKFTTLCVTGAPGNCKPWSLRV
Protocol: All reactants were dissolved in PBS (0.2 M, pH 7.5). The experiments were performed at 37 °C in 96-wells microplates with a final volume of 250 µL/well [30]. […] To all wells, 25 µL of EDTA (0.1 mM in PBS) and 25 µL of xanthine solution (500 µM) were then added, and the reaction was started by adding 50 µL of XO suspension (23.32 mU/mL), while PBS (50 µL) was added in blank samples. The final concentrations were: xanthine, 50 µM; EDTA, 10 µM and XO, 4.7 mU/mL. The wells were incubated for 30 min at 37 °C, and uric acid production was determined by subtracting the absorbance at 290–295 nm of the sample against that of the blank. Each measurement was performed in triplicate.

[6] = Metal chelating capacity (ferrozine); settings: EDTA equivalents per gram of extract
[7] = target: T2, Lipoxygenase (15-LOX, soybean) (Glycine max, UniProt P08170); assay: Lipoxygenase inhibitory activity (Cayman kit); type: biochemical; settings: compounds at 100 µg/mL
T2 sequence (P08170 1-839): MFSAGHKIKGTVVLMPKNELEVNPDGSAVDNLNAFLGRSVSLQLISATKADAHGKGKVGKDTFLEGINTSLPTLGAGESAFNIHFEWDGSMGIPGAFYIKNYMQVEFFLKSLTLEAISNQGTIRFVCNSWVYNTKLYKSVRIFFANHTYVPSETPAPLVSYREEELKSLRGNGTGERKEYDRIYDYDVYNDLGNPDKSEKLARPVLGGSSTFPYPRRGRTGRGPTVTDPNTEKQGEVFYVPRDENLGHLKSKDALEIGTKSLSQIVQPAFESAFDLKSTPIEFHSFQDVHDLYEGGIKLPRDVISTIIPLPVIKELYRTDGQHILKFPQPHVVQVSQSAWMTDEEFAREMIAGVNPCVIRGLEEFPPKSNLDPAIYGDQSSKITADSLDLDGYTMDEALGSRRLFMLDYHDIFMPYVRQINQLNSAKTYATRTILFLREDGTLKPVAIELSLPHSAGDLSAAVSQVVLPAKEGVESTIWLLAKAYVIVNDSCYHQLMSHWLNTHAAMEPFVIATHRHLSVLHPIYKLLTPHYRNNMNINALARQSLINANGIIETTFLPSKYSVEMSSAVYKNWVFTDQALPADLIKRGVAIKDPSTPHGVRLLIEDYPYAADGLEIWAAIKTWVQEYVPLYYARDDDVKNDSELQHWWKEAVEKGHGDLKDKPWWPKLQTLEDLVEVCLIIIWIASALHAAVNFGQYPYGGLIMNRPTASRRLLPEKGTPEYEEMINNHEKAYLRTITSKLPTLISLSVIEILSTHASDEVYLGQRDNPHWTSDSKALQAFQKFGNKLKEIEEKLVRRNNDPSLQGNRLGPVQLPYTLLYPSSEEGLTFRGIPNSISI
Protocol: Lipoxygenase (15-LOX, soybean) inhibitory activity was evaluated using a commercial assay kit (Cayman Chemicals Co; Item No. 760700) according to the manufacturer’s instructions. Solutions of test samples (10 μL) in methanol were added into 96-wells plates together with assay buffer, and the enzyme was added. The reaction was initiated by adding 10 μL of arachidonic acid to the wells and the plate was placed on a shaker for 15 min. Chromogen solution (100 μL) was added to the wells, the plate was then placed on a shaker for 10 min and absorbance was read at 495–500 nm. […] Results are expressed as a percentage relative to the activity without the test compound.

SMILES	IC50 (3T3 fibroblasts) [µg/mL]	MIC (M. tuberculosis H37 RV) [µg/mL]	DPPH scavenging capacity, in words (DPPH assay)	IC50 (DPPH assay) [µM]	IC50 [1] [µg/mL]	zone of inhibition at 20 µg/disc [2] [mm]	TRAP TE [3] [TE]	TRAP activity, in words [3]	other results
CCCc1cc(=O)oc2c3c(c4c(c12)OC(C)(C)C=C4)O[C@H](C)[C@@H](C)C3=O [12-Oxocalanolide A]	36 ± 8 (≈ 97.7 µM)	> 15	inactive	> 1000	1.9 ± 0.1 (≈ 5.16 µM)	18 ± 2	–	–	Antimicrobial activity against S. aureus, in words [2]: significant activity
COc1ccc(O)c(C(C)(C)C)c1 [BHA, reference compound]	–	–	–	94.9 ± 6.1	–	–	3.46 ± 0.20	–	–
O=C(O)/C=C/c1ccc(O)c(O)c1 [Caffeic acid]	–	–	–	18.1 ± 0.21	–	–	2.98 ± 0.14	–	O2•− Quenching IC50 [4]: 0.013 ± 0.06 µg/mL; IC50 [5]: 219 µM; MCC [6]: 125± 5 µmol EDTAE/g; inhibition at 100 µg/mL [7]: 45 ± 1%
CCCc1cc(=O)oc2c3c(c4c(c12)OC(C)(C)C=C4)O[C@H](C)[C@@H](C)[C@@H]3O [Calanolide A]	52 ± 8 (≈ 140 µM)	4.1 ± 0.3 (≈ 11.1 µM)	slightly active	~950	8.2 ± 1.7 (≈ 22.1 µM)	14 ± 1	0.40 ± 0.02	–	–
CCCc1cc(=O)oc2c3c(c4c(c12)OC(C)(C)C=C4)O[C@H](C)[C@H](C)C3=O [Calanolide D]	–	–	inactive	> 1000	–	–	–	–	–
C/C=C(\C)C(=O)c1c(OC)c2c(c3c(CCC)cc(=O)oc13)OC(C)(C)C=C2 [Calanolide GUT 70]	–	–	slightly active	~900	–	–	0.30 ± 0.03	weakly active	–
C/C=C(\C)C(=O)c1c(OC)c2c(c3c(-c4ccccc4)cc(=O)oc13)OC(C)(C)C=C2 [Calophyllolide]	49 ± 4 (≈ 118 µM)	> 15	slightly active	~890	3.1 ± 0.9 (≈ 7.44 µM)	19 ± 3	0.48 ± 0.08	weakly active	Antimicrobial activity against S. aureus, in words [2]: significant activity
O=C(O)c1cc(O)c(O)c(O)c1 [Gallic acid]	–	–	–	–	–	–	–	–	O2•− Quenching IC50 [4]: 0.022 ± 0.01 µg/mL; IC50 [5]: 242 µM; MCC [6]: 90 ± 3 µmol EDTAE/g; inhibition at 100 µg/mL [7]: 28 ± 2%
C=C(C)C(CC=C(C)C)CC1(CC=C(C)C)C(=O)C(C(CCC)CC(=O)O)=C(O)C2=C1O[C@H](C)[C@@H](C)C2=O (stereo partly shown) [Inocalophyllin B]	41 ± 5 (≈ 77.8 µM)	> 15	moderately active	583 ± 17	4.2 ± 1.3 (≈ 7.97 µM)	20 ± 2	1.07 ± 0.06	significant TRAP activity	Antimicrobial activity against S. aureus, in words [2]: active
C[C@H]1Oc2c3c(c4c(-c5ccccc5)cc(=O)oc4c2C(=O)[C@@H]1C)OC(C)(C)C=C3 [Inophyllum C]	–	–	moderately active	701 ± 9	–	–	0.21 ± 0.04	weakly active	–
C[C@@H]1C(=O)c2c(c3c(c4c(-c5ccccc5)cc(=O)oc24)OC(C)(C)C=C3)O[C@@H]1C [Inophyllum E]	120 ± 9 (≈ 298 µM)	> 15	moderately active	481 ± 7	44.8 ± 2.2 (≈ 111 µM)	14 ± 2	0.91 ± 0.04	weakly active	–
C[C@@H]1[C@@H](C)Oc2c3c(c4c(-c5ccccc5)cc(=O)oc4c2[C@@H]1O)OC(C)(C)C=C3 [Inophyllum P]	92 ± 4 (≈ 227 µM)	5.7 ± 0.3 (≈ 14.1 µM)	strongly active	26.2 ± 3.1	11.3 ± 0.6 (≈ 27.9 µM)	17 ± 1	4.11 ± 0.10	strong antioxidant activity	DPPH: times more active than inophyllums E and C (DPPH assay): 20–30 times; TRAP efficiency relative to Trolox [3]: about four times more efficient than Trolox; Antimicrobial activity against S. aureus, in words [2]: significant activity
Cc1onc(-c2ccccc2)c1C(=O)N[C@@H]1C(=O)N2[C@@H]1SC(C)(C)[C@@H]2C(=O)O [Oxacillin, reference compound]	–	–	–	–	–	30 ± 1	–	–	–
O=c1c(O)c(-c2ccc(O)c(O)c2)oc2cc(O)cc(O)c12 [Quercetin]	–	–	–	14.1 ± 0.21	–	–	6.31 ± 0.24	–	O2•− Quenching IC50 [4]: 0.083 ± 0.06 µg/mL; MCC [6]: 105 ± 3 µmol EDTAE/g; inhibition at 100 µg/mL [7]: 83 ± 2%
Oc1ccc2c(c1)OCO2 [Sesamol, reference compound]	–	–	–	66.9 ± 3.1	–	–	1.34 ± 0.09	–	–
[H]/N=C(/N)N[C@H]1[C@H](O)[C@@H](O)[C@H](O[C@@H]2O[C@@H](C)[C@](O)(C=O)[C@H]2O[C@@H]2O[C@@H](CO)[C@H](O)[C@@H](O)[C@@H]2NC)[C@@H](N/C(N)=N\[H])[C@@H]1O [Streptomycin, reference compound]	–	0.4 ± 0.1 (≈ 0.688 µM)	–	–	–	–	–	–	–
CCC(C)c1cc(=O)oc2c3c(c4c(c12)OC(C)(C)C=C4)OC(C)C(C)C3O (stereo not shown) [Tamanolide D]	46 ± 5 (≈ 120 µM)	5.1 ± 0.3 (≈ 13.3 µM)	moderately active	779 ± 7	9.3 ± 1.2 (≈ 24.2 µM)	12 ± 2	1.36 ± 0.20	–	–
Cc1c(C)c2c(c(C)c1O)CCC(C)(C(=O)O)O2 (stereo not shown) [Trolox, 6-hydroxy-2,5,7,8-tetramethylchroman-2-carboxylic acid, reference compound]	–	–	–	21.2 ± 0.8	–	–	1	–	–
